Columns and labels:
[1] = tested on: rice flat sedge; assay: Test Example 3: herbicidal effect by foliage application, Wagner pot (Table 18, symbol E); type: in vivo, rice flat sedge (Cyperus iria); details: for herbicidal effect on E: rice flat sedge: amount of applied herbicide 320 g/ha
How it was run: (§1)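 Plants were sown in alluvial soil held under 0.1–0.5 cm standing water and grown 14 days in a greenhouse at 25–30 °C. An emulsifiable formulation, water-diluted to the set dose, was then sprayed onto the foliage, and effects were scored three weeks later using previously defined criteria.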

[2] = tested on: velvetleaf; assay: Test Example 5: herbicidal effect by foliage application, plastic box (Table 20, symbol M); type: in vivo, velvetleaf (Abutilon theophrasti); details: foliage application; for M: velvetleaf, herbicidal effect: three weeks after application; for herbicidal effect on M: velvetleaf (criteria 0-5): 320 g/ha, evaluated three weeks after application
How it was run: (§2)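 Plants sown in sterilized diluvial soil and grown 14 days in a greenhouse at 25° C to 30° C, then sprayed on the foliage with the compound's emulsion diluted in water to a predetermined herbicide amount. Injury to weeds and crops scored three weeks after application on a visual rating scale.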

[3] = tested on: green foxtail; assay: Test Example 5: herbicidal effect by foliage application, plastic box (Table 20, symbol G); type: in vivo, green foxtail (Setaria viridis); details: foliage application; for G: green foxtail, herbicidal effect: three weeks after application; for herbicidal effect on G: green foxtail (criteria 0-5): 320 g/ha, evaluated three weeks after application
How it was run: as §2

[4] = tested on: windgrass; assay: Test Example 5: herbicidal effect by foliage application, plastic box (Table 20, symbol L); type: in vivo, windgrass (Apera spica-venti); details: foliage application; for L: windgrass, herbicidal effect: three weeks after application; for herbicidal effect on L: windgrass (criteria 0-5): 320 g/ha, evaluated three weeks after application
How it was run: as §2

[5] = tested on: barnyard grass; assay: Test Example 5: herbicidal effect by foliage application, plastic box (Table 20, symbol H); type: in vivo, barnyard grass (Echinochloa crus-galli); details: foliage application; for H: barnyard grass, herbicidal effect: three weeks after application; for herbicidal effect on H: barnyard grass (criteria 0-5): 320 g/ha, evaluated three weeks after application
How it was run: as §2

[6] = tested on: chickweed; assay: Test Example 5: herbicidal effect by foliage application, plastic box (Table 20, symbol P); type: in vivo, common chickweed (Stellaria media); details: foliage application; for P: chickweed, herbicidal effect: three weeks after application; for herbicidal effect on P: chickweed (criteria 0-5): 320 g/ha, evaluated three weeks after application
How it was run: as §2

[7] = tested on: persian speedwell; assay: Test Example 5: herbicidal effect by foliage application, plastic box (Table 20, symbol R); type: in vivo, Persian speedwell (Veronica persica); details: foliage application; for R: persian speedwell, herbicidal effect: three weeks after application; for herbicidal effect on R: persian speedwell (criteria 0-5): 320 g/ha, evaluated three weeks after application
How it was run: as §2

[8] = tested on: Italian ryegrass; assay: Test Example 5: herbicidal effect by foliage application, plastic box (Table 20, symbol K); type: in vivo, Italian ryegrass (Lolium multiflorum); details: foliage application; for K: Italian ryegrass, herbicidal effect: three weeks after application; for herbicidal effect on K: Italian ryegrass (criteria 0-5): 320 g/ha, evaluated three weeks after application
How it was run: as §2

[9] = tested on: Chinese sprangletop; assay: Test Example 3: herbicidal effect by foliage application, Wagner pot (Table 18, symbol D); type: in vivo, chinese sprangletop (Leptochloa chinensis); details: for herbicidal effect on D: Chinese sprangletop: amount of applied herbicide 320 g/ha
How it was run: as §1

[10] = tested on: lambsquarters; assay: Test Example 5: herbicidal effect by foliage application, plastic box (Table 20, symbol O); type: in vivo, lambsquarters (Chenopodium album); details: foliage application; for O: lambsquarters, herbicidal effect: three weeks after application; for herbicidal effect on O: lambsquarters (criteria 0-5): 320 g/ha, evaluated three weeks after application
How it was run: as §2

[11] = tested on: wild oat; assay: Test Example 5: herbicidal effect by foliage application, plastic box (Table 20, symbol I); type: in vivo, wild oat (Avena fatua); details: foliage application; for I: wild oat, herbicidal effect: three weeks after application; for herbicidal effect on I: wild oat (criteria 0-5): 320 g/ha, evaluated three weeks after application
How it was run: as §2

[12] = tested on: barnyard grass; assay: Test Example 3: herbicidal effect by foliage application, Wagner pot (Table 18, symbol H); type: in vivo, barnyard grass (Echinochloa crus-galli); details: for herbicidal effect on H: barnyard grass: amount of applied herbicide 320 g/ha
How it was run: as §1

[13] = tested on: southern crabgrass; assay: Test Example 5: herbicidal effect by foliage application, plastic box (Table 20, symbol F); type: in vivo, southern crabgrass (Digitaria ciliaris); details: foliage application; for F: southern crabgrass, herbicidal effect: three weeks after application; for herbicidal effect on F: southern crabgrass (criteria 0-5): 320 g/ha, evaluated three weeks after application
How it was run: as §2

[14] = tested on: blackgrass; assay: Test Example 5: herbicidal effect by foliage application, plastic box (Table 20, symbol J); type: in vivo, blackgrass (Alopecurus myosuroides); details: foliage application; for J: blackgrass, herbicidal effect: three weeks after application; for herbicidal effect on J: blackgrass (criteria 0-5): 320 g/ha, evaluated three weeks after application
How it was run: as §2

[15] = tested on: redroot pigweed; assay: Test Example 5: herbicidal effect by foliage application, plastic box (Table 20, symbol N); type: in vivo, redroot pigweed (Amaranthus retroflexus); details: foliage application; for N: redroot pigweed, herbicidal effect: three weeks after application; for herbicidal effect on N: redroot pigweed (criteria 0-5): 320 g/ha, evaluated three weeks after application
How it was run: as §2

[16] = tested on: false cleavers; assay: Test Example 5: herbicidal effect by foliage application, plastic box (Table 20, symbol Q); type: in vivo, false cleavers (Galium spurium); details: foliage application; for Q: false cleavers, herbicidal effect: three weeks after application; for herbicidal effect on Q: false cleavers (criteria 0-5): 320 g/ha, evaluated three weeks after application
How it was run: as §2

SMILES	herbicidal effect on E (rice flat sedge), rating 0-5 ([1]; 320 g/ha)	M: velvetleaf, herbicidal effect ([2]; AAH 320 g/ha)	G: green foxtail, herbicidal effect ([3]; AAH 320 g/ha)	L: windgrass, herbicidal effect ([4]; AAH 320 g/ha)	H: barnyard grass, herbicidal effect ([5]; AAH 320 g/ha)	P: chickweed, herbicidal effect ([6]; AAH 320 g/ha)	R: persian speedwell, herbicidal effect ([7]; AAH 320 g/ha)	K: Italian ryegrass, herbicidal effect ([8]; AAH 320 g/ha)	herbicidal effect on D (Chinese sprangletop), rating 0-5 ([9]; 320 g/ha)	O: lambsquarters, herbicidal effect ([10]; AAH 320 g/ha)	I: wild oat, herbicidal effect ([11]; AAH 320 g/ha)	herbicidal effect on H (barnyard grass), rating 0-5 ([12]; 320 g/ha)	F: southern crabgrass, herbicidal effect ([13]; AAH 320 g/ha)	J: blackgrass, herbicidal effect ([14]; AAH 320 g/ha)	N: redroot pigweed, herbicidal effect ([15]; AAH 320 g/ha)	Q: false cleavers, herbicidal effect ([16]; AAH 320 g/ha)	herbicidal effect on E: rice flat sedge [1]	herbicidal effect on M: velvetleaf (criteria 0-5) [2]	herbicidal effect on G: green foxtail (criteria 0-5) [3]	herbicidal effect on L: windgrass (criteria 0-5) [4]	further results
Cc1nn(C)c(=O)c(-c2c(-c3ccc4c(c3)OCCO4)sc3ccccc23)c1OS(C)(=O)=O [1-094]	3 (Herbicidal rate of 40% or more and less than 70%)	3 (Herbicidal rate of 40% or more and less than 70%)	0 (Herbicidal rate of 5% or less (almost no effect))	0 (Herbicidal rate of 5% or less (almost no effect))	0 (Herbicidal rate of 5% or less (almost no effect))	0 (Herbicidal rate of 5% or less (almost no effect))	4 (Herbicidal rate of 70% or more and less than 90%)	0 (Herbicidal rate of 5% or less (almost no effect))	0 (Herbicidal rate of 5% or less (almost no effect))	1 (Herbicidal rate of 5% or more and less than 20%)	0 (Herbicidal rate of 5% or less (almost no effect))	3 (Herbicidal rate of 40% or more and less than 70%)	0 (Herbicidal rate of 5% or less (almost no effect))	0 (Herbicidal rate of 5% or less (almost no effect))	1 (Herbicidal rate of 5% or more and less than 20%)	0 (Herbicidal rate of 5% or less (almost no effect))	–	–	–	–	–
CCCC(=O)Oc1c(C)nn(C)c(=O)c1-c1c(-c2cc3c(cc2Cl)OCCO3)sc2ccccc12 [1-096]	–	–	–	–	–	–	–	–	–	–	–	–	–	–	–	–	–	–	–	–	herbicidal effect on E (rice flat sedge), rating 0-5 ([1]; 485 g/ha): 0 (Herbicidal rate of 5% or less (almost no effect)); M: velvetleaf, herbicidal effect ([2]; AAH 485 g/ha): 1 (Herbicidal rate of 5% or more and less than 20%); G: green foxtail, herbicidal effect ([3]; AAH 485 g/ha): 2 (Herbicidal rate of 20% or more and less than 40%); L: windgrass, herbicidal effect ([4]; AAH 485 g/ha): 0 (Herbicidal rate of 5% or less (almost no effect)); H: barnyard grass, herbicidal effect ([5]; AAH 485 g/ha): 3 (Herbicidal rate of 40% or more and less than 70%); P: chickweed, herbicidal effect ([6]; AAH 485 g/ha): 3 (Herbicidal rate of 40% or more and less than 70%); R: persian speedwell, herbicidal effect ([7]; AAH 485 g/ha): 5 (Herbicidal rate of 90% or more (almost completely withered)); K: Italian ryegrass, herbicidal effect ([8]; AAH 485 g/ha): 0 (Herbicidal rate of 5% or less (almost no effect)); herbicidal effect on D (Chinese sprangletop), rating 0-5 ([9]; 485 g/ha): 2 (Herbicidal rate of 20% or more and less than 40%); O: lambsquarters, herbicidal effect ([10]; AAH 485 g/ha): 4 (Herbicidal rate of 70% or more and less than 90%); I: wild oat, herbicidal effect ([11]; AAH 485 g/ha): 0 (Herbicidal rate of 5% or less (almost no effect)); herbicidal effect on H (barnyard grass), rating 0-5 ([12]; 485 g/ha): 5 (Herbicidal rate of 90% or more (almost completely withered)); F: southern crabgrass, herbicidal effect ([13]; AAH 485 g/ha): 2 (Herbicidal rate of 20% or more and less than 40%); J: blackgrass, herbicidal effect ([14]; AAH 485 g/ha): 0 (Herbicidal rate of 5% or less (almost no effect)); N: redroot pigweed, herbicidal effect ([15]; AAH 485 g/ha): 4 (Herbicidal rate of 70% or more and less than 90%); Q: false cleavers, herbicidal effect ([16]; AAH 485 g/ha): 1 (Herbicidal rate of 5% or more and less than 20%)
CCCC(=O)Oc1c(C)nn(C)c(=O)c1-c1c(-c2ccc(Oc3ccccc3)cc2)sc2ccccc12 [1-150]	3 (Herbicidal rate of 40% or more and less than 70%)	3 (Herbicidal rate of 40% or more and less than 70%)	0 (Herbicidal rate of 5% or less (almost no effect))	0 (Herbicidal rate of 5% or less (almost no effect))	0 (Herbicidal rate of 5% or less (almost no effect))	5 (Herbicidal rate of 90% or more (almost completely withered))	5 (Herbicidal rate of 90% or more (almost completely withered))	0 (Herbicidal rate of 5% or less (almost no effect))	3 (Herbicidal rate of 40% or more and less than 70%)	2 (Herbicidal rate of 20% or more and less than 40%)	0 (Herbicidal rate of 5% or less (almost no effect))	2 (Herbicidal rate of 20% or more and less than 40%)	0 (Herbicidal rate of 5% or less (almost no effect))	0 (Herbicidal rate of 5% or less (almost no effect))	4 (Herbicidal rate of 70% or more and less than 90%)	5 (Herbicidal rate of 90% or more (almost completely withered))	–	–	–	–	–
Cc1ccc2sc(-c3ccc4c(c3)OCCO4)c(-c3c(O)c(C)nn(C)c3=O)c2c1 [2-158]	–	–	–	–	–	–	–	–	–	–	–	–	–	–	–	–	4 (Herbicidal rate of 70% or more and less than 90%)	2 (Herbicidal rate of 20% or more and less than 40%)	0 (Herbicidal rate of 5% or less (almost no effect))	0 (Herbicidal rate of 5% or less (almost no effect))	herbicidal effect on H: barnyard grass (criteria 0-5) [5]: 0 (Herbicidal rate of 5% or less (almost no effect)); herbicidal effect on P: chickweed (criteria 0-5) [6]: 5 (Herbicidal rate of 90% or more (almost completely withered)); herbicidal effect on R: persian speedwell (criteria 0-5) [7]: 5 (Herbicidal rate of 90% or more (almost completely withered)); herbicidal effect on K: Italian ryegrass (criteria 0-5) [8]: 0 (Herbicidal rate of 5% or less (almost no effect)); herbicidal effect on D: Chinese sprangletop [9]: 1 (Herbicidal rate of 5% or more and less than 20%); herbicidal effect on O: lambsquarters (criteria 0-5) [10]: 0 (Herbicidal rate of 5% or less (almost no effect)); herbicidal effect on I: wild oat (criteria 0-5) [11]: 0 (Herbicidal rate of 5% or less (almost no effect)); herbicidal effect on H: barnyard grass [12]: 0 (Herbicidal rate of 5% or less (almost no effect)); herbicidal effect on F: southern crabgrass (criteria 0-5) [13]: 0 (Herbicidal rate of 5% or less (almost no effect)); herbicidal effect on J: blackgrass (criteria 0-5) [14]: 0 (Herbicidal rate of 5% or less (almost no effect)); herbicidal effect on N: redroot pigweed (criteria 0-5) [15]: 0 (Herbicidal rate of 5% or less (almost no effect)); herbicidal effect on Q: false cleavers (criteria 0-5) [16]: 0 (Herbicidal rate of 5% or less (almost no effect))
CCCC(=O)Oc1c(C)nn(C)c(=O)c1-c1c(-c2ccc3c(c2)OCCO3)sc2ccc(C)cc12 [2-159]	–	–	–	–	–	–	–	–	–	–	–	–	–	–	–	–	3 (Herbicidal rate of 40% or more and less than 70%)	2 (Herbicidal rate of 20% or more and less than 40%)	0 (Herbicidal rate of 5% or less (almost no effect))	0 (Herbicidal rate of 5% or less (almost no effect))	herbicidal effect on H: barnyard grass (criteria 0-5) [5]: 0 (Herbicidal rate of 5% or less (almost no effect)); herbicidal effect on P: chickweed (criteria 0-5) [6]: 4 (Herbicidal rate of 70% or more and less than 90%); herbicidal effect on R: persian speedwell (criteria 0-5) [7]: 4 (Herbicidal rate of 70% or more and less than 90%); herbicidal effect on K: Italian ryegrass (criteria 0-5) [8]: 0 (Herbicidal rate of 5% or less (almost no effect)); herbicidal effect on D: Chinese sprangletop [9]: 0 (Herbicidal rate of 5% or less (almost no effect)); herbicidal effect on O: lambsquarters (criteria 0-5) [10]: 0 (Herbicidal rate of 5% or less (almost no effect)); herbicidal effect on I: wild oat (criteria 0-5) [11]: 0 (Herbicidal rate of 5% or less (almost no effect)); herbicidal effect on H: barnyard grass [12]: 0 (Herbicidal rate of 5% or less (almost no effect)); herbicidal effect on F: southern crabgrass (criteria 0-5) [13]: 0 (Herbicidal rate of 5% or less (almost no effect)); herbicidal effect on J: blackgrass (criteria 0-5) [14]: 0 (Herbicidal rate of 5% or less (almost no effect)); herbicidal effect on N: redroot pigweed (criteria 0-5) [15]: 5 (Herbicidal rate of 90% or more (almost completely withered)); herbicidal effect on Q: false cleavers (criteria 0-5) [16]: 0 (Herbicidal rate of 5% or less (almost no effect))
